Laboratory results: ChEMBL document CHEMBL1201862, “PubChem BioAssay data set” (2004)
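How tested: cells in 96-well plates exposed to compound for 48 hours at five concentrations. The concentration for 50% growth inhibition is given as GI50.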 The source made the active and inactive calls. Rule as the data show it: active = GI50 up to about 1.1 µM and inactive = higher.

Columns and labels:
Experiment in all cases: DTP human tumour cell line panel, 48 h
[1] = tested on: SR
[2] = tested on: NCI/ADR-RES
[3] = tested on: MDA-MB-435
[4] = tested on: HCT-116
[5] = tested on: SNB-75
[6] = tested on: OVCAR-8
[7] = tested on: 786-0
[8] = tested on: M14
[9] = tested on: SK-OV-3
[10] = tested on: NCI-H226
[11] = tested on: MDA-MB-231
[12] = tested on: KM12
[13] = tested on: SK-MEL-5
[14] = tested on: OVCAR-5
[15] = tested on: K562
[16] = tested on: SF-268
[17] = tested on: CCRF-CEM
[18] = tested on: A498
[19] = tested on: COLO 205
[20] = tested on: T47D

Measured: GI50

CNc1ccc(C)cc1S(=O)(=O)c1ccccc1[N+](=O)[O-]
inactive: [1] 51.3 µM | [2] 42.3 µM | [3] 25.5 µM | [4] 48.4 µM | [5] 43.3 µM | [6] 78 µM | [7] 64.6 µM | [8] 40.6 µM | [9] 91 µM | [10] 75.5 µM | [11] > 100 µM | [12] 59.4 µM | [13] 18.2 µM | [14] > 100 µM | [15] 26.7 µM | [16] 53 µM | [17] 21.4 µM | [18] 62.5 µM | [19] 65.6 µM | [20] 29 µM

Nc1c(S(=O)(=O)O)cc(S(=O)(=O)O)c2ccc(/N=N/c3ccccc3)c(O)c12
inactive: [1] > 100 µM | [2] > 100 µM | [3] > 100 µM | [4] > 100 µM | [5] > 100 µM | [6] > 100 µM | [7] > 100 µM | [8] > 100 µM | [9] > 100 µM | [10] > 100 µM | [11] > 100 µM | [12] > 100 µM | [13] > 100 µM | [14] > 100 µM | [15] 43.3 µM | [16] > 100 µM | [17] > 100 µM | [18] > 100 µM | [19] > 100 µM | [20] > 100 µM

CC(C)=CCC[C@@H](C)C1=C(O)C(=O)C(C)=C(Nc2ccccc2Br)C1=O
inactive: [1] 9.66 µM | [2] 3.78 µM | [3] 19.9 µM | [4] 18.1 µM | [5] 15.4 µM | [6] 7.57 µM | [7] 13.3 µM | [8] 15.2 µM | [9] 17.5 µM | [10] 14.7 µM | [11] 20.7 µM | [12] 12.5 µM | [13] 11.5 µM | [14] 20.3 µM | [15] 10.8 µM | [16] 7.89 µM | [17] 3.84 µM | [18] 7.19 µM | [19] 15.9 µM | [20] 13.8 µM

C/C(=N\O)c1cccc[n+]1Cc1ccccc1
inactive: [1] > 100 µM | [2] > 100 µM | [3] > 100 µM | [4] > 100 µM | [5] > 100 µM | [6] > 100 µM | [7] > 100 µM | [8] > 100 µM | [9] > 100 µM | [10] > 100 µM | [11] > 100 µM | [12] > 100 µM | [13] > 100 µM | [14] > 100 µM | [15] > 100 µM | [16] > 100 µM | [17] > 100 µM | [18] > 100 µM | [19] > 100 µM | [20] > 100 µM

CC1(C)[C@H]2Cc3cc(-c4cc5c(cn4)[C@@H]4C[C@H]([C@@H]5[C@@H]5c6cc(-c7cc8c(cn7)[C@@H]7C[C@H](C8)C7(C)C)ncc6[C@@H]6C[C@H]5C6(C)C)C4(C)C)ncc3[C@@H]1C2
inactive: [1] > 100 µM | [2] > 100 µM | [3] > 100 µM | [4] > 100 µM | [5] > 100 µM | [6] > 100 µM | [7] > 100 µM | [8] > 100 µM | [9] > 100 µM | [10] > 100 µM | [11] > 100 µM | [12] > 100 µM | [13] > 100 µM | [14] > 100 µM | [15] > 100 µM | [16] > 100 µM | [17] > 100 µM | [18] > 100 µM | [19] > 100 µM | [20] > 100 µM

O=c1[nH]c2ccccc2c(=O)n1/N=C/c1ccc(O)cc1
inactive: [1] > 100 µM | [2] 50.9 µM | [3] > 100 µM | [4] > 100 µM | [5] 41.4 µM | [6] 48.2 µM | [7] 30.8 µM | [8] > 100 µM | [9] > 100 µM | [10] > 100 µM | [11] 45.5 µM | [12] > 100 µM | [13] > 100 µM | [14] > 100 µM | [15] > 100 µM | [16] 42.2 µM | [17] 66.4 µM | [18] > 100 µM | [19] > 100 µM | [20] > 100 µM

C(=C\N1CCCCC1)/c1nnnn1-c1ccccc1
inactive: [1] 23.4 µM | [2] 20.5 µM | [3] 22.2 µM | [4] 25.4 µM | [5] 19.6 µM | [6] 26.4 µM | [7] 43.8 µM | [8] 14.1 µM | [9] 25.6 µM | [10] 37.2 µM | [11] 20.8 µM | [12] 56.8 µM | [13] 23.3 µM | [14] 42.1 µM | [15] 30.7 µM | [16] 27 µM | [17] 19.6 µM | [18] 54.1 µM | [19] > 100 µM | [20] 13.5 µM

CC(C)NC(=O)OCc1c(COC(=O)NC(C)C)c(-c2cc[n+](COC(=O)C(C)(C)C)cc2)n2c1CCC2
inactive: [1] 19.1 µM | [2] > 100 µM | [3] > 100 µM | [4] > 100 µM | [5] > 100 µM | [6] > 100 µM | [7] > 100 µM | [8] > 100 µM | [9] > 100 µM | [10] > 100 µM | [11] > 100 µM | [12] > 100 µM | [13] > 100 µM | [14] > 100 µM | [15] > 100 µM | [16] > 100 µM | [17] > 100 µM | [18] > 100 µM | [19] > 100 µM | [20] > 100 µM

Cc1ccc(S(=O)(=O)ON2C(=O)c3c(N)c(C#N)c(-c4ccccc4)c(-c4ccccc4)c3C2=O)cc1
inactive: [1] 8.39 µM | [2] 23.4 µM | [3] 9.77 µM | [4] 14.6 µM | [5] 36.4 µM | [6] 17.6 µM | [7] 15.8 µM | [8] 13.6 µM | [9] 16.2 µM | [10] 15.9 µM | [11] 19.3 µM | [12] 51.1 µM | [13] 17.1 µM | [14] 18 µM | [15] 6.41 µM | [16] 34.3 µM | [17] 3.16 µM | [18] 20 µM | [19] 17.3 µM | [20] 18.2 µM

CCOC(=O)/C=C(\C(=O)OCC)n1cnc2c(N)ncnc21
inactive: [1] 1.91 µM | [2] 17.2 µM | [3] 11.8 µM | [4] 3.11 µM | [5] 12.4 µM | [6] 7.45 µM | [7] 2.77 µM | [8] 10.4 µM | [9] 17.7 µM | [10] 5.97 µM | [11] 7.31 µM | [12] 14.8 µM | [13] 14.7 µM | [14] 5.83 µM | [15] 1.99 µM | [16] 15.3 µM | [17] 1.63 µM | [18] 13.2 µM | [19] 1.99 µM | [20] 2.92 µM
